What was measured:
[1] = test system: Human immunodeficiency virus; assay: Antiviral activity against HIV by pseudo-type HIV assay; format: functional, organism-based; settings: Human immunodeficiency virus 1
[2] = molecular target: Human immunodeficiency virus type 1 integrase (Human immunodeficiency virus 1, UniProt Q7ZJM1); assay: Inhibition of HIV1 recombinant integrase strand transfer activity
Human immunodeficiency virus type 1 integrase, sequence (Q7ZJM1 whole entry): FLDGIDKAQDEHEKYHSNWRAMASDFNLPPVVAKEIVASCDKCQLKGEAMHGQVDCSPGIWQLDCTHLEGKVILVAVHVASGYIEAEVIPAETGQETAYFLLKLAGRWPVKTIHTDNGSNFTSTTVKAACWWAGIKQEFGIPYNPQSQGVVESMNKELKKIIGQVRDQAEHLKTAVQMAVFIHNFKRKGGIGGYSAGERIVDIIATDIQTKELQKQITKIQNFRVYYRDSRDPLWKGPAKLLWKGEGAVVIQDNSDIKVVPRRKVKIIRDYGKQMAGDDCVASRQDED

Oc1c(-c2nnc(Cc3cccc(Cl)c3)[nH]2)ncc2cccnc12 was tested, and the EC50 [1] was 1000 nM and the IC50 [2] was 1030 nM.

Oc1c(-c2nnc(CCc3ccccc3)[nH]2)ncc2cccnc12 was tested, and the EC50 [1] was over 20000 nM and the IC50 [2] was 2400 nM.

Cn1nc(-c2ncc3cccnc3c2O)nc1Cc1ccc(F)cc1 was tested, and the IC50 [2] was 7900 nM.

For Oc1c(-c2noc(Cc3ccc(F)cc3)n2)ncc2cccnc12, the EC50 [1] was 220 nM and the IC50 [2] was 130 nM.

COc1ccc(Cc2nnc(-c3ncc4cccnc4c3O)[nH]2)cc1OC was tested, and the EC50 [1] was over 35000 nM and the IC50 [2] was 6300 nM.

Work on Oc1c(-c2nnc(Cc3ccc(F)cc3)o2)ncc2cccnc12 yielded an EC50 [1] of 130 nM and an IC50 [2] of 42 nM.

Oc1c(-c2nnc(Cc3ccccc3)o2)ncc2cccnc12 gave an EC50 [1] of 420 nM and an IC50 [2] of 130 nM.

For COc1cccc(Cc2nnc(-c3ncc4cccnc4c3O)[nH]2)c1, the EC50 [1] was over 35000 nM and the IC50 [2] was 2800 nM.

With Oc1c(-c2noc(Cc3ccccc3)n2)ncc2cccnc12 the EC50 [1] was 1900 nM and the IC50 [2] was 950 nM.

Molecule Oc1c(-c2noc(-c3ccccc3)n2)ncc2cccnc12 has an IC50 [2] of over 100000 nM.

Oc1c(-c2nnc(Cc3cccnc3)[nH]2)ncc2cccnc12 showed an EC50 [1] of 6400 nM and an IC50 [2] of 3500 nM.

Molecule Oc1c(-c2nnc(Cc3ccccc3)[nH]2)ncc2cccnc12 has an EC50 [1] of 8700 nM and an IC50 [2] of 360 nM.

Work on O=C(NCc1ccc(F)cc1)c1nc(N2CCCCS2(=O)=O)c2cccnc2c1O yielded an EC50 [1] of 2 nM.

Work on Oc1c(-c2nnc(Cc3ccc(Cl)cc3)[nH]2)ncc2cccnc12 yielded an EC50 [1] of 1000 nM and an IC50 [2] of 640 nM.

Oc1c(-c2nnc(Cc3ccc(F)cc3)[nH]2)ncc2cccnc12 showed an EC50 [1] of 320 nM and an IC50 [2] of 130 nM.

Cn1nc(Cc2ccc(F)cc2)nc1-c1ncc2cccnc2c1O gave an IC50 [2] of over 500000 nM.

O=S1(=O)CCCCN1c1nc(-c2nnc(Cc3ccc(F)cc3)[nH]2)c(O)c2ncccc12 gave an EC50 [1] of 240 nM and an IC50 [2] of 11 nM.

For O=C(NCc1ccc(F)cc1)c1ncc2cccnc2c1O, the EC50 [1] was 75 nM and the IC50 [2] was 12 nM.

Oc1c(-c2nnc(Cc3ccncc3)[nH]2)ncc2cccnc12 gave an EC50 [1] of over 35000 nM and an IC50 [2] of 4600 nM.

For O=S1(=O)CCCCN1c1nc(-c2noc(Cc3ccc(F)cc3)n2)c(O)c2ncccc12, the IC50 [2] was over 100000 nM.

O=S1(=O)CCCCN1c1nc(-c2nnc(Cc3ccc(F)cc3)o2)c(O)c2ncccc12 gave an EC50 [1] of 13 nM and an IC50 [2] of 2 nM.

— ChEMBL document CHEMBL1153294, “The use of oxadiazole and triazole substituted naphthyridines as HIV-1 integrase inhibitors. Part 1: Establishing the pharmacophore” (Bioorg Med Chem Lett, 2009)
